# pEC50: −log10 of the molar value.
# What was measured:
# Type in all cases: cell-based
# SMARCA2 = molecular target: T1, SMARCA2 (Homo sapiens, UniProt P51531); test: SMARCA2 degradation in VCaP cells by Western blot; settings: 16 hours
# T1 construct: Determination of SMARCA2 and SMARCA4 Degradation in VCaP Cells by Western Blot; endogenous in cells; host or cells: VCaP (ATCC CRL-2876)
# Experimental: Example-P2: Determination of SMARCA2 and SMARCA4 Degradation in VCaP Cells by Western Blot
# VCaP (ATCC CRL-2876) was plated in 6 well plates using complete Dulbecco's Modified Eagle's Medium. On the third day, compounds of present invention were added to cells from 10 mM stocks made in DMSO (Sigma Cat no. D2650). Each concentration of compound was tested with DMSO not exceeding final percentage of 0.3 in the cells. Cells were incubated with the compound for 16 hours followed by harvesting with 1×RIPA lysis buffer (Thermo Fischer, catalogue number #89900) containing protease inhibitor cocktail (Sigma catalogue number #P-8340). Equal amount of protein was loaded on SDS PAGE gel for electrophoresis. Western blot was carried out for detection of either SMARCA2 (Cell signalling technologies, catalogue number #11966) or SMARCA4 antibody (Cell signalling technologies, catalogue number #52251). Beta-Tubulin antibody (Cell signalling technologies, catalogue number #86298) was used as loading control. Percentage of SMARCA2 or SMARCA4 degradation was calculated using formula % Degradation=100−(normalized band intensity in treated sample/normalized band intensity in DMSO sample)*100.
# SMARCA4 = molecular target: T2, SMARCA4 (Homo sapiens, UniProt P51532); test: SMARCA4 degradation in VCaP cells by Western blot; settings: 16 hours
# T2 construct: Determination of SMARCA2 and SMARCA4 Degradation in VCaP Cells by Western Blot; endogenous in cells; host or cells: VCaP (ATCC CRL-2876)
# Experimental: On the third day, compounds of present invention were added to cells from 10 mM stocks made in DMSO (Sigma Cat no. D2650). Each concentration of compound was tested with DMSO not exceeding final percentage of 0.3 in the cells. […] Equal amount of protein was loaded on SDS PAGE gel for electrophoresis. […] Percentage of SMARCA2 or SMARCA4 degradation was calculated using formula % Degradation=100−(normalized band intensity in treated sample/normalized band intensity in DMSO sample)*100.
# SK-MEL-5 cells = test: Anti proliferative activity, Cell Titer Glo assay, SK-MEL-5; settings: Homo sapiens, retreatment Day 4, terminated day 8, CellTiter-Glo
# Experimental: Example-P3: Determination of Anti Proliferative Activity of Compounds by Cell Titer Glo®(Promega) Assay
# Cells were seeded into 96-well plates and the plate was incubated in 37 degrees incubator overnight. The next day, compounds were diluted 3-fold to cover 9-point concentration range in DMSO. Intermediate plate dilution was prepared in media followed with compound treatment in cells. Retreatment of cells with compound dilutions was performed on Day 4 and assay was terminated on day 8 for SK-MEL-5 cells using CellTiter-Glo and the plate was kept on orbital shaker for 20 minutes at RT. Assay was terminated on day 6 for RERF-LC-A1 without a compound retreatment. Luminescence signal was recorded on VICTOR^3 instrument. Percent inhibition of proliferation was calculated at each concentration and plotted against the compound concentration. EC50 value was calculated using GraphPad software.
# T1 sequence (P51531 whole entry): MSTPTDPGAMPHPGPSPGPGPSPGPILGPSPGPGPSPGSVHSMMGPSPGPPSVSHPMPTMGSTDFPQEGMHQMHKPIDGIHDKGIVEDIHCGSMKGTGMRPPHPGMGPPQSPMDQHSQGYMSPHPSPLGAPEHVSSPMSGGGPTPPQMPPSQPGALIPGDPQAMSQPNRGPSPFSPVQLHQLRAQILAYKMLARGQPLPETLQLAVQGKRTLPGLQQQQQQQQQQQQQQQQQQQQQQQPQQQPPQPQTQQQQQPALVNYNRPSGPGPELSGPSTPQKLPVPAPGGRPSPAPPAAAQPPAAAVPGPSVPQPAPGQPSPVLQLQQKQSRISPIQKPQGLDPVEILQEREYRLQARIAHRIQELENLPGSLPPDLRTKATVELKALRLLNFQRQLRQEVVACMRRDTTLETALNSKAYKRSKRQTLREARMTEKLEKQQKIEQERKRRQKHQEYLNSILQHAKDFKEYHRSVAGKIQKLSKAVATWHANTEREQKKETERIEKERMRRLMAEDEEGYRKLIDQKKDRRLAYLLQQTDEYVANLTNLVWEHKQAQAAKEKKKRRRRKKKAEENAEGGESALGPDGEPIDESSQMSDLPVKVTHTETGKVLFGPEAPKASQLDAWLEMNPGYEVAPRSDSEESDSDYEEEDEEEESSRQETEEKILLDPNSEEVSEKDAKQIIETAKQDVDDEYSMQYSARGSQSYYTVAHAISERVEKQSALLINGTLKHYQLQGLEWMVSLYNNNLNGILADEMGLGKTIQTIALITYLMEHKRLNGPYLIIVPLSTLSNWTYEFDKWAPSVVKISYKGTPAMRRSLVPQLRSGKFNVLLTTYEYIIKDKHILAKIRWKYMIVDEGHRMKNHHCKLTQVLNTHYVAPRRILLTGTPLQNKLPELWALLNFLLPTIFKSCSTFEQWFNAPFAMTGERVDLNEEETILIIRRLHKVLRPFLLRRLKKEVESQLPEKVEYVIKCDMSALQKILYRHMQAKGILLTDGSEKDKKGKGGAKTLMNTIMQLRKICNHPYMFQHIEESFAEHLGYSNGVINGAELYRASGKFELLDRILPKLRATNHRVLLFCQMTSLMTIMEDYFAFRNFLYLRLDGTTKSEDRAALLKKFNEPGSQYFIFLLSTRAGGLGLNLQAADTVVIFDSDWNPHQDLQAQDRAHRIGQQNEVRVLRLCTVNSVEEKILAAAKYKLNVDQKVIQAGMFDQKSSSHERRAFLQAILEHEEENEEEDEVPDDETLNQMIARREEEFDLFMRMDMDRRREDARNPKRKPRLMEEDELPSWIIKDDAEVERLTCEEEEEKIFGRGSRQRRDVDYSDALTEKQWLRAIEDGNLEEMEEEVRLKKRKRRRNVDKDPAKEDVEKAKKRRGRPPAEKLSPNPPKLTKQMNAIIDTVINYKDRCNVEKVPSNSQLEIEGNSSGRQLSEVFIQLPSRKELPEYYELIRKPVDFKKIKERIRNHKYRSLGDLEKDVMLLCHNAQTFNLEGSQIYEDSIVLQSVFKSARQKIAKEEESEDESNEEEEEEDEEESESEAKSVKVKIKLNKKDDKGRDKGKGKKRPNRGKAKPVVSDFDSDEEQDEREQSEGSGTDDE
# T2 sequence (P51532 whole entry): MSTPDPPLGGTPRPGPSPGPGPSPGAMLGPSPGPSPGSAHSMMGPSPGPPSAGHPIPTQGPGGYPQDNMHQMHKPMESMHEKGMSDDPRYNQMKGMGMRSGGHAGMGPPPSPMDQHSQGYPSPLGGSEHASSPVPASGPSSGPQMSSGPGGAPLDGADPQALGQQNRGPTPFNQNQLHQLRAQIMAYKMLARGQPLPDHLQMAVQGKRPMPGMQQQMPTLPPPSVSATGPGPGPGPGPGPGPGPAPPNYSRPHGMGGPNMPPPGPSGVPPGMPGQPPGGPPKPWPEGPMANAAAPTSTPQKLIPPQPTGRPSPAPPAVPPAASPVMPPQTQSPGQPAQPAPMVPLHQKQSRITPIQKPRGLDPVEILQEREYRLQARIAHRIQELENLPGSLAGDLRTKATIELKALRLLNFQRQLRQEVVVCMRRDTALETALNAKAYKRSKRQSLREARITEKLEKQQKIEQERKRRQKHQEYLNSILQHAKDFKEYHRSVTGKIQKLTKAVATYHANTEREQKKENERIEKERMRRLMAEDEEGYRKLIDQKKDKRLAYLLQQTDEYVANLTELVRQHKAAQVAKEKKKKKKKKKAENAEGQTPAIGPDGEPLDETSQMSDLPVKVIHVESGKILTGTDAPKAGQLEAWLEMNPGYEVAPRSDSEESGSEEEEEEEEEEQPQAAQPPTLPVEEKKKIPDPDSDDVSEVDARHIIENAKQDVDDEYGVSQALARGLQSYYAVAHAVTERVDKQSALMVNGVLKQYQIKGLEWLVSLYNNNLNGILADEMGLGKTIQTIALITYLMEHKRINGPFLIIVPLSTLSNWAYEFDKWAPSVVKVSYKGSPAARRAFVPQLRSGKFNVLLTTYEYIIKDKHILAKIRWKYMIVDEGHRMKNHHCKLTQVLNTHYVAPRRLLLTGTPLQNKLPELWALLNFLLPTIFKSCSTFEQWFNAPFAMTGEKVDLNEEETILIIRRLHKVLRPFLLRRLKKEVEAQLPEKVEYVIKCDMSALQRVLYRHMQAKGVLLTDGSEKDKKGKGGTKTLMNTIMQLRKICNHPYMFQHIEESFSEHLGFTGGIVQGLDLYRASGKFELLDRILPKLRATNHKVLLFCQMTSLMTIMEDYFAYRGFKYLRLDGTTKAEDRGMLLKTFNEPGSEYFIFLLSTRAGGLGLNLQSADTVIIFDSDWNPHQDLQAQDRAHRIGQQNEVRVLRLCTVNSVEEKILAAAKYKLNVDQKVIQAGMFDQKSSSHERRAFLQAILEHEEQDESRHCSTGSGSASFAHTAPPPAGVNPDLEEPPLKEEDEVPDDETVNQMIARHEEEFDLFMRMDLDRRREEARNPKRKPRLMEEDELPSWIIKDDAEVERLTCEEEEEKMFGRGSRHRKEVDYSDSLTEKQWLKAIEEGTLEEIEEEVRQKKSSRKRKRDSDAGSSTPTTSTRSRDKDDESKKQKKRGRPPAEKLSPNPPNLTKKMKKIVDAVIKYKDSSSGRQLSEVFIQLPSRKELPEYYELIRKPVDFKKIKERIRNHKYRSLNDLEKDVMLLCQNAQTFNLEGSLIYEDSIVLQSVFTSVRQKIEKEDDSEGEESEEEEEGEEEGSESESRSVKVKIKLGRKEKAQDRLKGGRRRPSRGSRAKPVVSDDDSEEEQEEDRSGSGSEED
SMILES,Percent degradation (at 100 nM) SMARCA2 (SMARCA2) [%],Percent degradation (at 100 nM) SMARCA4 (SMARCA4) [%],"pEC50 (SK-MEL-5 cells; SK-MEL-5, SK-MEL-5 cells)",pEC50 (SK-MEL-5 cells; SK-MEL-5 cells)
"Cc1ncsc1-c1ccc([C@H](C)NC(=O)[C@@H]2C[C@@H](O)CN2C(=O)[C@@H](NC(=O)C(C)N2CCN(c3ccc(-c4cnnc(-c5ccccc5O)c4)cc3)CC2)C(C)(C)C)cc1 (single isomer, unassigned) [Compound 30]",79,0,> 6.60,
"Cc1ncsc1-c1ccc([C@H](C)NC(=O)[C@@H]2C[C@@H](O)CN2C(=O)[C@@H](NC(=O)CN2CCC(c3ccc(-c4cnnc(-c5cc(F)ccc5O)c4)cc3)CC2)C(C)(C)C)cc1 [Compound 13, (2S,4R)-1-((S)-2-(2-(4-(4-(6-(5-fluoro-2-hydroxyphenyl)pyridazin-4-yl)phenyl)piperidin-1-yl)acetamido)-3,3-dimethylbutanoyl)-4-hydroxy-N-((S)-1-(4-(4-methylthiazol-5-yl)phenyl)ethyl)pyrrolidine-2-carboxamide]",17,0,< 6.30,
"Cc1ncsc1-c1ccc([C@H](C)NC(=O)[C@@H]2C[C@@H](O)CN2C(=O)[C@@H](NC(=O)CN2CCC(c3ccc(-c4cnnc(-c5ccccc5O)c4)cc3F)CC2)C(C)(C)C)cc1 [Compound 15, (2S,4R)-1-((S)-2-(2-(4-(2-fluoro-4-(6-(2-hydroxyphenyl)pyridazin-4-yl)phenyl)piperidin-1-yl)acetamido)-3,3-dimethylbutanoyl)-4-hydroxy-N-((S)-1-(4-(4-methylthiazol-5-yl)phenyl)ethyl)pyrrolidine-2-carboxamide]",60,0,< 6.30,
"Cc1ncsc1-c1ccc([C@H](C)NC(=O)[C@@H]2C[C@@H](O)CN2C(=O)[C@@H](NC(=O)C2CCN(c3ccc(-c4cnnc(-c5ccccc5O)c4)cc3)CC2)C(C)(C)C)cc1 [Compound 16, N-((S)-1-((2S,4R)-4-hydroxy-2-(((S)-1-(4-(4-methylthiazol-5-yl)phenyl)ethyl)carbamoyl)pyrrolidin-1-yl)-3,3-dimethyl-1-oxobutan-2-yl)-1-(4-(6-(2-hydroxyphenyl)pyridazin-4-yl)phenyl)piperidine-4-carboxamide]",76,0,> 6.60,
"Cc1ncsc1-c1ccc([C@H](C)NC(=O)[C@@H]2C[C@@H](O)CN2C(=O)[C@@H](NC(=O)CC2CCC(c3ccc(-c4cnnc(-c5ccccc5O)c4)cc3)CC2)C(C)(C)C)cc1 (stereo partly drawn) [Compound 17, (2S,4R)-4-hydroxy-1-((S)-2-(2-(4-(4-(6-(2-hydroxyphenyl)pyridazin-4-yl)phenyl)cyclohexyl)acetamido)-3,3-dimethylbutanoyl)-N-((S)-1-(4-(4-methylthiazol-5-yl)phenyl)ethyl)pyrrolidine-2-carboxamide]",,,< 6.30,
"Cc1ncsc1-c1ccc([C@H](C)NC(=O)[C@@H]2C[C@@H](O)CN2C(=O)[C@@H](NC(=O)C2CCC(c3ccc(-c4cnnc(-c5ccccc5O)c4)cc3)CC2)C(C)(C)C)cc1 (stereo partly drawn) [Compound 18, (2S,4R)-4-hydroxy-1-((S)-2-(4-(4-(6-(2-hydroxyphenyl)pyridazin-4-yl)phenyl)cyclohexane-1-carboxamido)-3,3-dimethylbutanoyl)-N-((S)-1-(4-(4-methylthiazol-5-yl)phenyl)ethyl)pyrrolidine-2-carboxamide]",95,0,> 6.60,
"Cc1ncsc1-c1ccc([C@H](C)NC(=O)[C@@H]2C[C@@H](O)CN2C(=O)[C@@H](NC(=O)CN2CCCC(c3ccc(-c4cnnc(-c5ccccc5O)c4)cc3)C2)C(C)(C)C)cc1 (stereo partly drawn) [Compound 20, (2S,4R)-4-hydroxy-1-((2S)-2-(2-(3-(4-(6-(2-hydroxyphenyl)pyridazin-4-yl)phenyl)piperidin-1-yl)acetamido)-3,3-dimethylbutanoyl)-N-((S)-1-(4-(4-methylthiazol-5-yl)phenyl)ethyl)pyrrolidine-2-carboxamide]",41,0,6.30 to 6.60,
"Cc1ncsc1-c1ccc([C@H](C)NC(=O)[C@@H]2C[C@@H](O)CN2C(=O)[C@@H](NC(=O)CN2CC(c3ccc(-c4cnnc(-c5ccccc5O)c4)cc3)C2)C(C)(C)C)cc1 [Compound 21, (2S,4R)-4-hydroxy-1-((S)-2-(2-(3-(4-(6-(2-hydroxyphenyl)pyridazin-4-yl)phenyl)azetidin-1-yl)acetamido)-3,3-dimethylbutanoyl)-N-((S)-1-(4-(4-methylthiazol-5-yl)phenyl)ethyl)pyrrolidine-2-carboxamide]",21,4,< 6.30,
"Cc1ncsc1-c1ccc([C@H](C)NC(=O)[C@@H]2C[C@@H](O)CN2C(=O)[C@@H](NC(=O)CN2CCC(c3ccc(-c4cnnc(-c5ccccc5O)c4)cc3)C2)C(C)(C)C)cc1 (stereo partly drawn) [Compound 22, (2S,4R)-4-hydroxy-1-((2S)-2-(2-(3-(4-(6-(2-hydroxyphenyl)pyridazin-4-yl)phenyl)pyrrolidin-1-yl)acetamido)-3,3-dimethylbutanoyl)-N-((S)-1-(4-(4-methylthiazol-5-yl)phenyl)ethyl)pyrrolidine-2-carboxamide]",,,< 6.30,
"Cc1ncsc1-c1ccc([C@H](C)NC(=O)[C@@H]2C[C@@H](O)CN2C(=O)[C@@H](NC(=O)CN2CCC(c3cccc(-c4cnnc(-c5ccccc5O)c4)c3)CC2)C(C)(C)C)cc1 [Compound 23, (2S,4R)-4-hydroxy-1-((S)-2-(2-(4-(3-(6-(2-hydroxyphenyl)pyridazin-4-yl)phenyl)piperidin-1-yl)acetamido)-3,3-dimethylbutanoyl)-N-((S)-1-(4-(4-methylthiazol-5-yl)phenyl)ethyl)pyrrolidine-2-carboxamide]",15,0,< 6.30,
"Cc1ncsc1-c1ccc([C@H](C)NC(=O)[C@@H]2C[C@@H](O)CN2C(=O)[C@@H](NC(=O)CN2CCC(c3ccc(-c4cnnc(-c5ccccc5O)c4)cn3)CC2)C(C)(C)C)cc1 [Compound 27, (2S,4R)-4-hydroxy-1-((S)-2-(2-(4-(5-(6-(2-hydroxyphenyl)pyridazin-4-yl)pyridin-2-yl)piperidin-1-yl)acetamido)-3,3-dimethylbutanoyl)-N-((S)-1-(4-(4-methylthiazol-5-yl)phenyl)ethyl)pyrrolidine-2-carboxamide]",,,< 6.30,
"Cc1ncsc1-c1ccc([C@H](C)NC(=O)[C@@H]2C[C@@H](O)CN2C(=O)[C@@H](NC(=O)CN2CCC(Nc3ccc(-c4cnnc(-c5ccccc5O)c4)cc3)CC2)C(C)(C)C)cc1 [Compound 45, (2S,4R)-4-hydroxy-1-((S)-2-(2-(4-((4-(6-(2-hydroxyphenyl)pyridazin-4-yl)phenyl)amino)piperidin-1-yl)acetamido)-3,3-dimethylbutanoyl)-N-((S)-1-(4-(4-methylthiazol-5-yl)phenyl)ethyl)pyrrolidine-2-carboxamide]",94,,,> 6.60
"Cc1ncsc1-c1ccc([C@H](CO)NC(=O)[C@@H]2C[C@@H](O)CN2C(=O)[C@@H](NC(=O)CN2CCN(c3ccc(-c4cnnc(-c5ccccc5O)c4)cc3)CC2)C(C)(C)C)cc1 [Compound 48, (2S,4R)-4-hydroxy-N-((R)-2-hydroxy-1-(4-(4-methylthiazol-5-yl)phenyl)ethyl)-1-((S)-2-(2-(4-(4-(6-(2-hydroxyphenyl)pyridazin-4-yl)phenyl)piperazin-1-yl)acetamido)-3,3-dimethylbutanoyl)pyrrolidine-2-carboxamide]",90,21,,
"Cc1ncsc1-c1ccc(C(CN(C)C)NC(=O)[C@@H]2C[C@@H](O)CN2C(=O)[C@@H](NC(=O)CN2CCN(c3ccc(-c4cnnc(-c5ccccc5O)c4)cc3)CC2)C(C)(C)C)cc1 (stereo partly drawn) [Compound 49, (2S,4R)-N-(2-(dimethylamino)-1-(4-(4-methylthiazol-5-yl)phenyl)ethyl)-4-hydroxy-1-((S)-2-(2-(4-(4-(6-(2-hydroxyphenyl)pyridazin-4-yl)phenyl)piperazin-1-yl)acetamido)-3,3-dimethylbutanoyl)pyrrolidine-2-carboxamide]",93,48,,

# Source: patent US12570650B2, “6-substituted pyridazine compounds as SMARCA2 and/or SMARCA4 degraders” (Aurigene Oncology Limited, priority 2020, dated 2026)
